In EPA's ToxValDB 9.5 (doi:10.2903/j.efsa.2012.2921):
Values joined by “and” are separate entries in the source; they are usually repeats but may differ in a detail not shown here. Equal entries are not always repeated.

Legend:
Oryctolagus sp. = conditions: reproduction developmental; no effects
Pimephales promelas = conditions: chronic/long-term; duration: 33 days; growth
Oncorhynchus mykiss = conditions: acute; duration: 96 hours; mortality
Canidae = conditions: chronic; duration: 1 years; oral; Dog Other; no effects
Apis mellifera = conditions: acute, mortality
Daphnia magna = conditions: chronic/long-term; duration: 21 days; reproduction
Rattus norvegicus = conditions: for NOAEL: no effects
Tagia sp. = conditions: acute; duration: 14 days; mortality
Folsomia candida = conditions: chronic/long-term
Bibionidae = conditions: chronic/long-term; duration: 28 days
Mus musculus = conditions: no effects
[1] = subchronic, duration: 90 days, oral

With `CCCCCCCCc1c(CC)nc2ncnn2c1N` [Ametoctradin] the LC50 (Colinus virginianus; acute, oral, diet, mortality) was > 758 mg/kg-day, the LD50 (Colinus virginianus; acute, oral, mortality) was > 2000 mg/kg-day and the NOEC (Colinus virginianus; reproduction developmental) was ≥ 115 mg/kg-day. For the same compound, the NOAEL (Oryctolagus sp.) was 1000 mg/kg-day, the NOEC (Pimephales promelas) was 0.048 mg/L and the LC50 (Oncorhynchus mykiss) was > 0.0646 µg/mL. The LD50 (Anas platyrhynchos; acute, oral, unspecified, mortality) was > 2000 mg/kg-day, the NOEC (Anas platyrhynchos; reproductive) was ≥ 188 mg/kg-day and the LC50 (Anas platyrhynchos; short-term, oral, feed, mortality) was > 1550 mg/kg-day. The NOAEL (Canidae) was 848 mg/kg-day, the LD50 (Apis mellifera; dermal) was > 100 µg/piece and the LD50 (Apis mellifera; oral, unspecified) was > 112 µg/piece. The NOEC (Daphnia magna) was 0.044 mg/L, the LD50 (Rattus norvegicus; acute, oral, mortality) was > 2000 mg/kg-day and the NOAEL (Rattus norvegicus; chronic, duration: 2 years) was 871 mg/kg-day. The NOAEL (Rattus norvegicus; reproduction developmental) was ≥ 939 mg/kg-day and 1000 mg/kg-day, the NOAEL (Rattus norvegicus; [1]) was 1080 mg/kg-day and the LC50 (Tagia sp.) was > 1000 mg/kg. For the same compound, the NOEC (Folsomia candida) was ≥ 268 mg/kg, the NOEC (Bibionidae) was 222 mg/kg and the NOAEL (Mus musculus; chronic, duration: 18 months) was 1100 mg/kg-day. The NOAEL (Mus musculus; [1]) was 1120 mg/kg-day.
